Source: patent US10669242B2 (priority 2016, dated 2020)

What follows are molecules tested against T1, recombinant glucosyltransferase domain of C. difficile Toxin B/TcdB (Clostridioides difficile, UniProt P18177) (assay: biochemical).
T1 construct: 6-His (C); purchased R&D Systems 6246-GT
T1 sequence (P18177 1-543): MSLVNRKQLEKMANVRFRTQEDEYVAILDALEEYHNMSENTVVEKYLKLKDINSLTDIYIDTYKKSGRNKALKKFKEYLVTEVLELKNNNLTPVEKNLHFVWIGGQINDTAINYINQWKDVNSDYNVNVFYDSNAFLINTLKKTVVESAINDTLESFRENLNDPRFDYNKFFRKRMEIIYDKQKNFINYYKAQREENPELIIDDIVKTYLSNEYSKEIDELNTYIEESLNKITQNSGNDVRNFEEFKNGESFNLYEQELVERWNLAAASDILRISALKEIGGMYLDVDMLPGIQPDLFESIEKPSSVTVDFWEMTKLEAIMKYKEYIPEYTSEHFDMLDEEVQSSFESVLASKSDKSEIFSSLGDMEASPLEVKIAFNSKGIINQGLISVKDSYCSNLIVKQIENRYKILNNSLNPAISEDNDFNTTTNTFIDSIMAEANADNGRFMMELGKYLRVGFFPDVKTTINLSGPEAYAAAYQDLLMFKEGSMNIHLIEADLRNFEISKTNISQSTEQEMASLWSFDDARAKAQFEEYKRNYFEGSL

SMILES	IC50 [nM]
O=C(Nc1ccccn1)c1ccc(CN2C(=O)c3ccc(Cl)cc3NC(=O)[C@H]2Cc2ccccc2F)cc1 [Example 4an, (R)-4-((8-chloro-3-(2-fluorobenzyl)-2,5-dioxo-2,3-dihydro-1H-benzo[e][1,4]diazepin-4(5H)-yl)methyl)-N-(pyridin-2-yl)benzamide]	< 100
COc1ccc(NC(=O)c2ccc(CN3C(=O)c4ccc(Cl)cc4NC(=O)[C@H]3Cc3ccccn3)cc2)nc1 [Example 4ao, (R)-4-((8-chloro-2,5-dioxo-3-(pyridin-2-ylmethyl)-2,3-dihydro-1H-benzo[e][1,4]diazepin-4(5H)-yl)methyl)-N-(5-methoxypyridin-2-yl)benzamide]	< 100
CCc1ccc(NC(=O)c2ccc(CN3C(=O)c4ccc(Cl)cc4NC(=O)[C@H]3Cc3ccccn3)cc2)nc1 [Example 4ap, (R)-4-((8-chloro-2,5-dioxo-3-(pyridin-2-ylmethyl)-2,3-dihydro-1H-benzo[e][1,4]diazepin-4(5H)-yl)methyl)-N-(5-ethylpyridin-2-yl)benzamide]	< 100
O=C(Nc1ccccn1)c1ccc(CN2C(=O)c3ccc(Cl)cc3NC(=O)[C@@H]2Cc2ccccn2)cc1 [Example 4aq, (S)-4-((8-chloro-2,5-dioxo-3-(pyridin-2-ylmethyl)-2,3-dihydro-1H-benzo[e][1,4]diazepin-4(5H)-yl)methyl)-N-(pyridin-2-yl)benzamide]	< 100
CC1(C)Cc2cccnc2N1C(=O)c1ccc(CN2C(=O)c3ccc(Cl)cc3NC(=O)[C@H]2Cc2ccccn2)cc1Cl [Example 4ar, (R)-8-chloro-4-(3-chloro-4-(2,2-dimethyl-2,3-dihydro-1H-pyrrolo[2,3-b]pyridine-1-carbonyl)benzyl)-3-(pyridin-2-ylmethyl)-3,4-dihydro-1H-benzo[e][1,4]diazepine-2,5-dione]	< 100
CC1(C)CN(C(=O)c2ccc(CN3C(=O)c4ccc(Cl)cc4NC(=O)[C@H]3Cc3ccccn3)cc2Cl)c2ncccc21 [Example 4as, (R)-8-chloro-4-(3-chloro-4-(3,3-dimethyl-2,3-dihydro-1H-pyrrolo[2,3-b]pyridine-1-carbonyl)benzyl)-3-(pyridin-2-ylmethyl)-3,4-dihydro-1H-benzo[e][1,4]diazepine-2,5-dione]	< 100
CC(C)c1ccc(NC(=O)c2ccc(CN3C(=O)c4ccc(Cl)cc4NC(=O)[C@H]3Cc3cccnc3)cc2)nc1 [Example 4at, (R)-4-((8-chloro-2,5-dioxo-3-(pyridin-3-ylmethyl)-2,3-dihydro-1H-benzo[e][1,4]diazepin-4(5H)-yl)methyl)-N-(5-isopropylpyridin-2-yl)benzamide]	< 100
O=C(Nc1ccc(N2CCOCC2)cn1)c1ccc(CN2C(=O)c3ccc(Cl)cc3NC(=O)[C@H]2Cc2ccccn2)cc1 [Example 4av, (R)-4-((8-chloro-2,5-dioxo-3-(pyridin-2-ylmethyl)-2,3-dihydro-1H-benzo[e][1,4]diazepin-4(5H)-yl)methyl)-N-(5-morpholinopyridin-2-yl)benzamide]	< 100
CC(C)(C)OC(=O)N1CCN(c2ccc(NC(=O)c3ccc(CN4C(=O)c5ccc(Cl)cc5NC(=O)[C@H]4Cc4ccccn4)cc3)nc2)CC1 [Example 4aw, (R)-tert-butyl 4-(6-(4-((8-chloro-2,5-dioxo-3-(pyridin-2-ylmethyl)-2,3-dihydro-1H-benzo[e][1,4]diazepin-4(5H)-yl)methyl)benzamido)pyridin-3-yl)piperazine-1-carboxylate]	100 to 999
CN1CCN(c2ccc(NC(=O)c3ccc(CN4C(=O)c5ccc(Cl)cc5NC(=O)[C@H]4Cc4ccccn4)cc3)nc2)CC1 [Example 4ax, (R)-4-((8-chloro-2,5-dioxo-3-(pyridin-2-ylmethyl)-2,3-dihydro-1H-benzo[e][1,4]diazepin-4(5H)-yl)methyl)-N-(5-(4-methylpiperazin-1-yl)pyridin-2-yl)benzamide]	< 100
CCc1ccc(NC(=O)c2ccc(CN3C(=O)c4ccc(Cl)cc4NC(=O)[C@H]3C)cc2)nc1 [Example 4ay, (R)-4-((8-chloro-3-methyl-2,5-dioxo-2,3-dihydro-1H-benzo[e][1,4]diazepin-4(5H)-yl)methyl)-N-(5-ethylpyridin-2-yl)benzamide]	100 to 999
CC(C)c1ccc(NC(=O)c2ccc(CN3C(=O)c4ccc(Cl)cc4NC(=O)[C@H]3C)cc2)nc1 [Example 4az, (R)-4-((8-chloro-3-methyl-2,5-dioxo-2,3-dihydro-1H-benzo[e][1,4]diazepin-4(5H)-yl)methyl)-N-(5-isopropylpyridin-2-yl)benzamide]	100 to 999
COc1ccc(NC(=O)c2ccc(CN3C(=O)c4ccc(Cl)cc4NC(=O)[C@H]3C)cc2)nc1 [Example 4ba, (R)-4-((8-chloro-3-methyl-2,5-dioxo-2,3-dihydro-1H-benzo[e][1,4]diazepin-4(5H)-yl)methyl)-N-(5-methoxypyridin-2-yl)benzamide]	100 to 999
C[C@@H]1C(=O)Nc2cc(Cl)ccc2C(=O)N1Cc1ccc(C(=O)Nc2cc3ccccc3cn2)cc1 [Example 4bb, (R)-4-((8-chloro-3-methyl-2,5-dioxo-2,3-dihydro-1H-benzo[e][1,4]diazepin-4(5H)-yl)methyl)-N-(isoquinolin-3-yl)benzamide]	100 to 999
C[C@@H]1C(=O)Nc2cc(Cl)ccc2C(=O)N1Cc1ccc(C(=O)Nc2ccc(-c3ccccc3)cn2)cc1 [Example 4bc, (R)-4-((8-chloro-3-methyl-2,5-dioxo-2,3-dihydro-1H-benzo[e][1,4]diazepin-4(5H)-yl)methyl)-N-(5-phenylpyridin-2-yl)benzamide]	100 to 999
O=C(Nc1ccccn1)c1ccc(CN2C(=O)c3ccc(Br)cc3NC(=O)[C@H]2Cc2cccnc2)cc1 [Example 4bd, (R)-4-((8-bromo-2,5-dioxo-3-(pyridin-3-ylmethyl)-2,3-dihydro-1H-benzo[e][1,4]diazepin-4(5H)-yl)methyl)-N-(pyridin-2-yl)benzamide]	< 100
COc1cnc(NC(=O)c2ccc(CN3C(=O)c4ccc(Cl)cc4NC(=O)[C@H]3C)cc2)nc1 [Example 4be, (R)-4-((8-chloro-3-methyl-2,5-dioxo-2,3-dihydro-1H-benzo[e][1,4]diazepin-4(5H)-yl)methyl)-N-(5-methoxypyrimidin-2-yl)benzamide]	< 100
C[C@@H]1C(=O)Nc2cc(Cl)ccc2C(=O)N1Cc1ccc(C(=O)Nc2ccc(N3CCOCC3)cn2)cc1 [Example 4bf, (R)-4-((8-chloro-3-methyl-2,5-dioxo-2,3-dihydro-1H-benzo[e][1,4]diazepin-4(5H)-yl)methyl)-N-(5-morpholinopyridin-2-yl)benzamide]	100 to 999
C[C@@H]1C(=O)Nc2cc(Cl)ccc2C(=O)N1Cc1ccc(C(=O)Nc2ccc(N3CCN(C(=O)OC(C)(C)C)CC3)cn2)cc1 [Example 4bg, (R)-tert-butyl 4-(6-(4-((8-chloro-3-methyl-2,5-dioxo-2,3-dihydro-1H-benzo[e][1,4]diazepin-4(5H)-yl)methyl)benzamido)pyridin-3-yl)piperazine-1-carboxylate]	100 to 999
C[C@@H]1C(=O)Nc2cc(Cl)ccc2C(=O)N1Cc1ccc(C(=O)Nc2ccc(N3CCN(C)CC3)cn2)cc1 [Example 4bh, (R)-4-((8-chloro-3-methyl-2,5-dioxo-2,3-dihydro-1H-benzo[e][1,4]diazepin-4(5H)-yl)methyl)-N-(5-(4-methylpiperazin-1-yl)pyridin-2-yl)benzamide]	100 to 999
Cc1cnc(NC(=O)c2ccc(CN3C(=O)c4ccc(Cl)cc4NC(=O)[C@H]3C)cc2)cn1 [Example 4bi, (R)-4-((8-chloro-3-methyl-2,5-dioxo-2,3-dihydro-1H-benzo[e][1,4]diazepin-4(5H)-yl)methyl)-N-(5-methylpyrazin-2-yl)benzamide]	100 to 999
Cc1nnc(NC(=O)c2ccc(CN3C(=O)c4ccc(Cl)cc4NC(=O)[C@H]3Cc3ccccn3)cc2)[nH]1 [Example 4bj, (R)-4-((8-chloro-2,5-dioxo-3-(pyridin-2-ylmethyl)-2,3-dihydro-1H-benzo[e][1,4]diazepin-4(5H)-yl)methyl)-N-(5-methyl-4H-1,2,4-triazol-3-yl)benzamide]	1000 to 10000
Cc1nsc(NC(=O)c2ccc(CN3C(=O)c4ccc(Cl)cc4NC(=O)[C@H]3Cc3ccccn3)cc2)n1 [Example 4bk, (R)-4-((8-chloro-2,5-dioxo-3-(pyridin-2-ylmethyl)-2,3-dihydro-1H-benzo[e][1,4]diazepin-4(5H)-yl)methyl)-N-(3-methyl-1,2,4-thiadiazol-5-yl)benzamide]	10000 to 35000
O=C(Nc1cccnn1)c1ccc(CN2C(=O)c3ccc(Cl)cc3NC(=O)[C@H]2Cc2ccccn2)cc1 [Example 4bl, (R)-4-((8-chloro-2,5-dioxo-3-(pyridin-2-ylmethyl)-2,3-dihydro-1H-benzo[e][1,4]diazepin-4(5H)-yl)methyl)-N-(pyridazin-3-yl)benzamide]	100 to 999
COc1ccc(NC(=O)c2ccc(CN3C(=O)c4ccc(Cl)cc4NC(=O)[C@H]3Cc3ccccn3)cc2)nn1 [Example 4bm, (R)-4-((8-chloro-2,5-dioxo-3-(pyridin-2-ylmethyl)-2,3-dihydro-1H-benzo[e][1,4]diazepin-4(5H)-yl)methyl)-N-(6-methoxypyridazin-3-yl)benzamide]	< 100
Cc1nnc(NC(=O)c2ccc(CN3C(=O)c4ccc(Cl)cc4NC(=O)[C@H]3Cc3ccccn3)cc2)s1 [Example 4bn, (R)-4-((8-chloro-2,5-dioxo-3-(pyridin-2-ylmethyl)-2,3-dihydro-1H-benzo[e][1,4]diazepin-4(5H)-yl)methyl)-N-(5-methyl-1,3,4-thiadiazol-2-yl)benzamide]	1000 to 10000
Cc1nnc(NC(=O)c2ccc(CN3C(=O)c4ccc(Cl)cc4NC(=O)[C@H]3Cc3ccccn3)cc2)o1 [Example 4bo, (R)-4-((8-chloro-2,5-dioxo-3-(pyridin-2-ylmethyl)-2,3-dihydro-1H-benzo[e][1,4]diazepin-4(5H)-yl)methyl)-N-(5-methyl-1,3,4-oxadiazol-2-yl)benzamide]	< 100
O=C(Nc1nncs1)c1ccc(CN2C(=O)c3ccc(Cl)cc3NC(=O)[C@H]2Cc2ccccn2)cc1 [Example 4bp, (R)-4-((8-chloro-2,5-dioxo-3-(pyridin-2-ylmethyl)-2,3-dihydro-1H-benzo[e][1,4]diazepin-4(5H)-yl)methyl)-N-(1,3,4-thiadiazol-2-yl)benzamide]	100 to 999
